For orientation: Ki means a measure of affinity in units of concentration, obtained from inhibition or displacement. One may read the IC50 as the concentration that gives 50% inhibition. One may read the pKa as the pH at which an ionisable group is half protonated.

The target of series [1] is T1, δ-opioid receptors (Rattus norvegicus, UniProt P33533). Description: Competitive binding assay, δ-opioid receptors, [3H]deltorphin II. Particulars: for selectivity Ki^μ/Ki^δ: ratio of binding Ki values. On the set-up: species or system Sprague-Dawley rats.
A further series has as its target μ-opioid receptors (Rattus norvegicus, UniProt P33535). Description: Competitive binding assay, μ-opioid receptors, [3H]DAMGO. On the set-up: species or system Sprague-Dawley rats.
The target in series [2] is T2, δ-opioid receptor (Mus musculus, UniProt P32300). Put plainly: Electrically stimulated mouse vas deferens. The class given is cell-based.
Series [3] addresses T3, μ-opioid receptor (Cavia porcellus, UniProt P97266). Put plainly: Electrically stimulated guinea-pig ileum. The class given is cell-based, guinea pigs.
Series [4] addresses T1, δ-opioid receptors. Particulars: ref Balboni et al.[14]; cited from earlier work.
For series [5], the target named is T2, δ-opioid receptor. Particulars: δ antagonism, cited from earlier work.
Series [6] addresses T3, μ-opioid receptor. Particulars: μ antagonism, cited from earlier work.
For series [7] the following is noted: about 2 units lower than Tyr; cited from earlier work.
Another series has as its target δ opioid receptor. Particulars: read-out: δ agonist IC50; cited from earlier work.

Where two headings read alike, the source gives them in different places. Where a SMILES comes first, the peptide text is derived from it. [ ]: non-standard residue; d: D form. The star is where a group is joined. Dmt = Cc1cc(O)cc(C)c1C[C@H](N)C(=O)O; Tic = O=C(O)[C@@H]1Cc2ccccc2CN1; NHBn = c1ccc(CN*)cc1

μ-opioid receptors, sequence (P33535 whole entry): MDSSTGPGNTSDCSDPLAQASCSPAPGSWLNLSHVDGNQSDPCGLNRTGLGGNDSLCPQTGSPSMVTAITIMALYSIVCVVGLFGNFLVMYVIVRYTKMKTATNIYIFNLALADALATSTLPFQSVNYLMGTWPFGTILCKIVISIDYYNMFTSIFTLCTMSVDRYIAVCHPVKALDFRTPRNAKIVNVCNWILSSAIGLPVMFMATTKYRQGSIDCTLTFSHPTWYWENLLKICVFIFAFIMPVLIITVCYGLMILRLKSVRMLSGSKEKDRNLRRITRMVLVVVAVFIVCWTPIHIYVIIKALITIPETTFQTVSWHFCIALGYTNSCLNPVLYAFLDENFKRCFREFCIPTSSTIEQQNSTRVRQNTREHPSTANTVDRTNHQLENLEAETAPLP
T3 sequence (P97266 whole entry, looked up): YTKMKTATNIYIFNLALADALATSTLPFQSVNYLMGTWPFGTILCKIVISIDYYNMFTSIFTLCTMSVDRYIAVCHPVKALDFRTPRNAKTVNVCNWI
T1 sequence (P33533 whole entry): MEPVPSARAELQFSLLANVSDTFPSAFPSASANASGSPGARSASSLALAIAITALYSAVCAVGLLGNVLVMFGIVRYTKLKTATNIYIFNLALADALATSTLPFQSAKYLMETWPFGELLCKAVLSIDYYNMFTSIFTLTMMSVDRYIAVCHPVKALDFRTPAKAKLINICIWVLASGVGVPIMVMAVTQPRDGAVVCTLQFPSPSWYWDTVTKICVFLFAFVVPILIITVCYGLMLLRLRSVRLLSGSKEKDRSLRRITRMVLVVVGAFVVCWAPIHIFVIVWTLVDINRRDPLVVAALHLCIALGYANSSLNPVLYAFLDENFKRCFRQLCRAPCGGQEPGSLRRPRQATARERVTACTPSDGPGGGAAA
T2 sequence (P32300 whole entry): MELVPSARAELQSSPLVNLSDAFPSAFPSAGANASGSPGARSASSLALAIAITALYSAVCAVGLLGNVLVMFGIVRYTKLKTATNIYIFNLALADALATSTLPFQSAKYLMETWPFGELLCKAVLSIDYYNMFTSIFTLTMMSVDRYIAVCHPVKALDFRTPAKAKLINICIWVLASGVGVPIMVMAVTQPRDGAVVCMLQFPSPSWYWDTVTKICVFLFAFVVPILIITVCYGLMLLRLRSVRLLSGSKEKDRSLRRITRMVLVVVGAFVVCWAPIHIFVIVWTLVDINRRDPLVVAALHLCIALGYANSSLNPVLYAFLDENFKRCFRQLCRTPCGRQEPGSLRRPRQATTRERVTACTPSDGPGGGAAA

For `CC(C)[C@H](NC(=O)[C@H](CCC(=O)O)NC(=O)[C@H](Cc1ccccc1)NC(=O)[C@@H](C)NC(=O)[C@@H](N)Cc1c(F)cc(O)cc1F)C(=O)N[C@H](C(=O)NCC(N)=O)C(C)C` [Compound 8, [Dft^1]Deltorphin B], the Ki at δ-opioid receptors [1] was 0.000241 ± 3e-05 µM; at μ-opioid receptors it was 0.154 ± 0.019 µM. For the same compound, at δ-opioid receptors [1], the “selectivity Ki^μ/Ki^δ” value was 640. Besides, the figures for the IC50 on δ-opioid receptor [2] and at μ-opioid receptor [3] were 0.0004 ± 8e-05 µM and 3.56 ± 0.566 µM, respectively.

Compound `CC(C)[C@H](NC(=O)[C@H](CCC(=O)O)NC(=O)[C@H](Cc1ccccc1)NC(=O)[C@@H](C)NC(=O)[C@@H](N)Cc1ccc(O)cc1)C(=O)N[C@H](C(=O)NCC(N)=O)C(C)C` [Compound 9, H-Tyr-D-Ala-Phe-Glu-Val-Val-Gly-NH2, reference compound] gave an IC50 on μ-opioid receptor [3] of over 10 µM.

For `Cc1cc(O)cc(C)c1C[C@H](N)C(=O)N1Cc2ccccc2C[C@H]1C(=O)N[C@@H](CCCCN)C(=O)NCc1ccccc1` [Compound 10, H-Dmt-Tic-Lys-NH-Bzl] (H-[Dmt]-[Tic]-Lys-NHBn), the “selectivity Ki^μ/Ki^δ” value at δ-opioid receptors [4] was 8. Besides, the “functional bioactivity MVD pA2” value at δ-opioid receptor [5] (ref Balboni et al.[14]) is 6.01. Further, the “functional bioactivity GPI pA2” value on μ-opioid receptor [6] (ref Balboni et al.[14]) was 7.96.

In the case of `NCCCC[C@H](NC(=O)[C@@H]1Cc2ccccc2CN1C(=O)[C@@H](N)Cc1c(F)cc(O)cc1F)C(=O)NCc1ccccc1` [Compound 11, H-Dft-Tic-Lys-NH-Bzl], the figures for the Ki on δ-opioid receptors [1] and at μ-opioid receptors were 0.153 ± 0.021 µM and 1.03 ± 0.083 µM, respectively. Besides, the “selectivity Ki^μ/Ki^δ” value on δ-opioid receptors [1] was determined as 7.

On to `NCCCC[C@H](NC(=O)[C@@H]1Cc2ccccc2CN1C(=O)[C@@H](N)Cc1ccc(O)cc1)C(=O)NCc1ccccc1` [Compound 12, H-Tyr-Tic-Lys-NH-Bzl] (H-Tyr-[Tic]-Lys-NHBn), for which, at δ-opioid receptors [1], the inhibition constant (Ki) is 0.0639 ± 0.0076 µM and the “selectivity Ki^μ/Ki^δ” value is on record as 26. Moreover, at μ-opioid receptors, the affinity corresponds to a Ki of 1.65 ± 0.231 µM.

As to `Cc1cc(O)cc(C)c1C[C@@H](C(=O)N1Cc2ccccc2C[C@H]1C(=O)O)N(C)C` [Compound 13, N,N(Me)2-Dmt-Tic-OH], the “functional bioactivity MVD pA2” value at δ-opioid receptor [5] (ref Salvadori et al.[15]) is 9.4. Moreover, the “functional bioactivity GPI pA2” value on μ-opioid receptor [6] (ref Salvadori et al.[15]) is 5.8.

With `Cc1cc(O)cc(C)c1C[C@@H](C(=O)N1Cc2ccccc2C[C@H]1C(N)=O)N(C)C` [Compound 16, N,N(Me)2-Dmt-Tic-NH2], the “functional bioactivity MVD pA2” value on δ-opioid receptor [5] (ref Salvadori et al.[15]) is reported as 9.9. Moreover, at μ-opioid receptor [6] (ref Salvadori et al.[15]), the “functional bioactivity GPI pA2” value is 6.3.

On to `N[C@@H](Cc1c(F)cc(O)cc1F)C(=O)O` [Dft, 2′,6′-difluoro-L-tyrosine], for which, in series [7], the pKa was 8.1.

Regarding H-Bcp-Tic-Phe-Phe-OH, the IC50 on δ opioid receptor was 0.00342 µM.

The record behind these values is PMC2918654 (Bioorganic & medicinal chemistry, 2010).
